The values below come from patent US12673052B2, “Combinations for the treatment of cancer” (Exelixis, Inc., priority 2020, dated 2026).

The nature of data set [1]: Single-dose plasma PK, IV and oral (PEG 400:EtOH:RO water). Format: in vivo, dogs. The procedure:
(§1) Plasma PK of Compound 1 was characterized in rats and beagle dogs. Toxicokinetic (TK) evaluations of oral Compound 1 were evaluated in repeat-dose studies in rats and dogs. Plasma protein binding was determined in mouse, rat, dog, monkey, and human plasma in vitro. Biotransformation and metabolite profiling of Compound 1 were investigated in vitro using mouse, rat, dog, monkey, and human liver microsomal fractions and hepatocytes and in vivo in rats and dogs. P-glycoprotein (P-gp) and breast cancer resistance protein (BCRP) transporter interaction studies, in vitro experiments evaluating cytochrome P450 (CYP) induction and inhibition by Compound 1, and CYP and glucuronosyltransferase (UGT) substrate specificity studies of Compound 1 were also performed.
The PK and TK of Compound 1 were assessed in rats and dogs after intravenous (IV; only single dose PK) and oral (PO) administration of Compound 1 in formulations prepared in polyethylene glycol 400 (PEG 400): ethanol (EtOH): reverse osmosis water (RO Water) (45:5:50 v/v/v).
Median time to maximum plasma concentration (Tmax) occurred at approximately 2-3 hours in rats and dogs.
The mean plasma t1/2, z values were approximately 9 hours in rats and 4 hours in dogs. Interspecies scaling based on body weight to predict PK parameters in humans could not be performed because dogs (larger species) cleared Compound 1 faster than rats (smaller species). Therefore, the human PK was projected based on one species (rat). […] This apparent clearance value (CL/F) was used to predict steady-state exposure (AUC and average plasma concentration [Cavg]) in humans for the proposed first-in-human (FIH) starting dose for Study Compound 1-001.

In the next data set the test system is mammalian cell. The data set is described as follows: In vitro mammalian cell genotoxicity bioassay. Format: cell-based. As for the experimental part:
The nonclinical toxicity of Compound 1 was characterized in dose range-finding 7-day and definitive 28-day repeat-dose studies in rats and dogs, and in in vitro bacterial and mammalian genotoxicity bioassays. Compound 1 was also evaluated in definitive neurobehavioral, respiratory and cardiovascular safety pharmacology studies.
Compound 1 was negative in in vitro bacterial and mammalian cell genotoxicity bioassays.

Data set [2] relates to CT26 colon carcinoma cells. As to the kind of experiment: Efficacy after oral dosing in CT26 tumor bearing female Balb/c mice. In kind it is in vivo. An excerpt: In this study, the inhibitory effects of Compound 1 as a single agent and in combination with an anti-PD-1 inhibitor in Balb/c mice grafted with CT26 colon carcinoma cells were studied. CT26 cells inoculated into syngeneic mice are highly tumorigenic (Brattain et al. 1980) and share molecular features with undifferentiated, invasive human colorectal carcinoma cells (Castle et al. 2014). Therefore, the CT26 cell line can serve as a valid cellular model for the metastatic and poorly differentiated human colorectal cancer. Moreover, this model has been reported to express significant levels of RTKs, indicating a potential reliance on these signaling pathway for the maintenance of a tumorigenic phenotype in vivo (Pryzybyszewska et al. 2017).
CT26 colon carcinoma cells (ATCC, CRL-2638) were thawed from the Exelixis pharmacology cell bank into T-75 flasks (Corning, 43064U) using fresh culture medium, ie, RPMI-1640 containing 10% fetal bovine serum (GIBCO, A384002). […]
Oral doses were administered via a […], 1.5″ stainless steel needle with silicone tip (VWR, 20068-666). […] Survival was monitored for a maximum of 40 days. […]
All animals were measured twice a week for tumor volume and body weight using Studylog software.
Significance values represent differences in comparison to vehicle or anti-PD-1 treatment groups and were determined using a nonparametric Mann-Whitney U-test. […]

For another data set, the target named is T1, MET (Homo sapiens, UniProt P08581, DEL964-1010).
T1 construct: endogenous in cells; host or cells: Hs 746T gastric carcinoma cells
As to the kind of experiment: Endogenous phosphorylated MET in Hs 746T gastric carcinoma cells (MET exon 14 skip-splice mutation). In kind it is cell-based. The note with it: MET (Hs 746T), no ligand; read-out: Cellular IC50. As for the experimental part: The activity of Compound 1 was evaluated in cell-based assays that assessed the mechanistic effects of the compound in tumor and normal cells. Consistent with the biochemical data, Compound 1 is a potent inhibitor of cellular RTKs as assessed by analysis of receptor autophosphorylation as measured by enzyme-linked immunosorbent assay. Assays were performed using cell lines (PC-3, HUVEC, and A-172) stimulated with ligands to their respective receptors to induce autophosphorylation (MET, VEGFR2, and AXL) or a cell line (293A) transfected with an expression vector encoding the receptor of interest (MER). Inhibition of endogenous phosphorylated MET by Compound 1 in Hs 746T gastric carcinoma cells was also investigated due to the presence of the skip-splice mutation of exon 14 in the MET gene. This MET exon 14 alteration leads to increased MET stability and oncogenic activation, including constitutive MET phosphorylation. Also this mutation is known to occur in 3% of lung adenocarcinoma patients and to be sensitive to MET-targeted therapies (Frampton et al 2015).

Data set [3] is described as follows: In vitro plasma protein binding. Format: in vitro ADME, human. As for the experimental part:
as §1
Compound 1 (10 μM) was 97.2 and 97.5% protein bound in monkey and human plasma, respectively.

The target of the next data set is CYP2D6 (Homo sapiens, UniProt P10635). As to the kind of experiment: CYP/UGT substrate specificity (recombinant Supersomes, chemical inhibitors in human liver microsomes). Format: in vitro ADME. Details: purchased; host or cells: recombinant Supersomes; human liver microsomes. As for the experimental part:
as §1

The target in a further data set is hERG channel (Homo sapiens, UniProt Q12809). As to the kind of experiment: In vitro hERG channel inhibition. Format: cell-based.

Where two headings read alike, the source gives them in different places.

Chain of hERG channel (Q12809 whole entry): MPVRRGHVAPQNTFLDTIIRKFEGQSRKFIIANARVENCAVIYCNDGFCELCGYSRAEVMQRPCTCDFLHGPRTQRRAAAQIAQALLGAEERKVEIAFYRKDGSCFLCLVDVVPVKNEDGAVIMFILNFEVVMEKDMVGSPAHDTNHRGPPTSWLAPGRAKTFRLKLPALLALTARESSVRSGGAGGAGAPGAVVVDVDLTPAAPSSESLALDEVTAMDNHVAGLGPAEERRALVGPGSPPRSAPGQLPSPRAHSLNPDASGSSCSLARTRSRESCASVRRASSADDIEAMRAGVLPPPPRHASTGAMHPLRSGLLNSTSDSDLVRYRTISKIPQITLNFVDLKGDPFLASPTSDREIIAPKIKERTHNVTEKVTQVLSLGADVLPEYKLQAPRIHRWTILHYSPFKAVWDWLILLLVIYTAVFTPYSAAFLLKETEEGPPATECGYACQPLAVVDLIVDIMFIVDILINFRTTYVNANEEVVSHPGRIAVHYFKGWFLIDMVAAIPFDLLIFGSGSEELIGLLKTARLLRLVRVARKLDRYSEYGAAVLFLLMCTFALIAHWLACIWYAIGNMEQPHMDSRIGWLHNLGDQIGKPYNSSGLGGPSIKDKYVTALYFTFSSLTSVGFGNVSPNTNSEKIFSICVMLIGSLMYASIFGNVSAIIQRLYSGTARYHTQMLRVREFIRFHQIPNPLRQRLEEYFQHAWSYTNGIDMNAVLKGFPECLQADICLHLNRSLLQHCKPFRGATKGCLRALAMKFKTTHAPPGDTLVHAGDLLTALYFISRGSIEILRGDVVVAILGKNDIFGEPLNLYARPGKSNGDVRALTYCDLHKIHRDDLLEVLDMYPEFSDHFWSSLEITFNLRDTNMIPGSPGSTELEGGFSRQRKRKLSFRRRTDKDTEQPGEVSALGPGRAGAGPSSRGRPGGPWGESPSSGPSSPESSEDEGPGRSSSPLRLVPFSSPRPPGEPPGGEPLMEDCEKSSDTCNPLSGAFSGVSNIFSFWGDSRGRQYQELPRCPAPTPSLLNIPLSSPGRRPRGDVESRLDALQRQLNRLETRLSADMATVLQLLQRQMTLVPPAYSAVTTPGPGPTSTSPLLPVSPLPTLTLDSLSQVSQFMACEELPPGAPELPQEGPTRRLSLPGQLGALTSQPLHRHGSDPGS
Chain of CYP2D6 (P10635 whole entry): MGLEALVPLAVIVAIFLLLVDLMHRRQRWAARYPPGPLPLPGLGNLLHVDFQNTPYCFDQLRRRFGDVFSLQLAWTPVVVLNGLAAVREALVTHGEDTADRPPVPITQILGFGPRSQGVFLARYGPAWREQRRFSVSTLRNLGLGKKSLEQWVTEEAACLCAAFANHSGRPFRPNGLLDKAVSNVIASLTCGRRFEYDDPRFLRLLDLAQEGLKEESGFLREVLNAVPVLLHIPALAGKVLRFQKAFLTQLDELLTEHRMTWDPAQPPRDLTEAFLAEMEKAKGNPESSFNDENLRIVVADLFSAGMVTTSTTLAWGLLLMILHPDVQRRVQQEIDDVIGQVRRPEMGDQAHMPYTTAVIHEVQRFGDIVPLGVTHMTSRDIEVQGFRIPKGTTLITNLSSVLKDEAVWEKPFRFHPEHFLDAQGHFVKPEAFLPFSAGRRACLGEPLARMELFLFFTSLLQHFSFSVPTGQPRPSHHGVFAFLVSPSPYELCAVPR
T1 sequence (P08581 with tags, fused parts or gaps DEL964-1010 limits assumed): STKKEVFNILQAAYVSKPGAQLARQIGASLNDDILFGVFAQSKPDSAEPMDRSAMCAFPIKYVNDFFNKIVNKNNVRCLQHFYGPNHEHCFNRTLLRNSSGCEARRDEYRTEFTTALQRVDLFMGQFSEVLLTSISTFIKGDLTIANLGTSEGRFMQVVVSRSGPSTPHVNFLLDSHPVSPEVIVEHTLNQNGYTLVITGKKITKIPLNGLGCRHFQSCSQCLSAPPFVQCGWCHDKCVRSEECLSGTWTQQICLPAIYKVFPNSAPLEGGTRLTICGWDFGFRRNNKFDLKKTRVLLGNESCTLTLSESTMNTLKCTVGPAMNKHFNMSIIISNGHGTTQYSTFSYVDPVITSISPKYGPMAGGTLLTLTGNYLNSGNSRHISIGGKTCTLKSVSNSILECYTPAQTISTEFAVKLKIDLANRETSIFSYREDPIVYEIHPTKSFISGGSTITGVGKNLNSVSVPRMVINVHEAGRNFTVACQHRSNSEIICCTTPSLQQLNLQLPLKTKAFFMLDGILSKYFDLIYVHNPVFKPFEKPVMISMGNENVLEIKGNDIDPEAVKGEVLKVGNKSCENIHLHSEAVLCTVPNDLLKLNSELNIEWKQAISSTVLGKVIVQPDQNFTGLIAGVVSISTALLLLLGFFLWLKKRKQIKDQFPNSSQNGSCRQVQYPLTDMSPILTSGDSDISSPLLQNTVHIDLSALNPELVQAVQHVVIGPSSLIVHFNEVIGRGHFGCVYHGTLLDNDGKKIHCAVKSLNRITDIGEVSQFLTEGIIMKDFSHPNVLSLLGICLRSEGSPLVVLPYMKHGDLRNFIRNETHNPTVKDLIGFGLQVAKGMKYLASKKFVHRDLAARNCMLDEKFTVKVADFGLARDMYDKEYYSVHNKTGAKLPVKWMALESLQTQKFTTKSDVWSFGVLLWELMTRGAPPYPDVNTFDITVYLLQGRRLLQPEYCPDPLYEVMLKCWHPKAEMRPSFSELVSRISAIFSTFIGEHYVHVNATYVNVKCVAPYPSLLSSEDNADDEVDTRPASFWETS
T1 sequence (P08581 25-307 partner limits assumed): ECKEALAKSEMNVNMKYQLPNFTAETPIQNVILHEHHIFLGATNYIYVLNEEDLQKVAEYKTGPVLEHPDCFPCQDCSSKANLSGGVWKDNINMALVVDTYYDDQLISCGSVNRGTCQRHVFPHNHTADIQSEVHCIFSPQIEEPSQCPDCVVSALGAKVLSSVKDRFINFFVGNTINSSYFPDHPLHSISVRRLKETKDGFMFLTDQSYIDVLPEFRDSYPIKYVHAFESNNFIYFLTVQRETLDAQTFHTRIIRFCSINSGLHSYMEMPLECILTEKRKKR

As to `CNC(=O)c1cc2c(Oc3ccc(NC(=O)C4(C(=O)Nc5ccc(F)cc5)CC4)cc3)ccnc2cc1OC` [Compound 1, 1-N′-(4-Fluorophenvl)-1-N-[4-[7-methoxy-6-(methylcarbamovl)quinolin-4-yl]oxyphenyl]cyclopropane-1,1-dicarboxamide], the bioavailability in data set [1] (beagle, dog, plasma, po, 0.2-0.6 mg/kg, read-out: Oral absolute bioavailability) lay within 47 to 70%. In addition, the half-life is 1 to 3 h in data set [1] (beagle, dog, plasma, after oral administration, read-out: terminal phase half-life (t1/2, z)) and approximately 4 h in data set [1] (beagle, dog, plasma, single-dose IV, read-out: mean plasma t1/2, z (converted)). Further, the Tmax in data set [1] (beagle, dog, plasma, single oral dose, read-out: Median time to maximum plasma concentration (Tmax)) is 2 to 3 h. Further, the clearance in data set [1] (beagle, dog, plasma, single-dose IV 0.2-0.6 mg/kg, read-out: mean plasma clearance (CL) (converted)) was 6.33 mL/min/kg. Also, the Vd in data set [1] (beagle, dog, plasma, single-dose IV, read-out: mean volume of distribution at steady-state (Vss)) was 1.98 L/kg. For the same compound, the “plasma clearance in dogs relative to rats” value in data set [1] (higher in dogs than in rats) was “approximately 16 fold”. For the same compound, the “increase of exposure (Cmax and AUC0-inf) with dose” value in data set [1] (single oral doses 0.2-0.6 mg/kg) is reported as “approximately dose proportionally”. For the same compound, the genotoxicity result in the data set with mammalian cell was “negative”. Also, in data set [2] (40-day dosing, P<0.0001 Compound 1 vs vehicle, P<0.0001 combination vs aPD-1 alone, P<0.05 combination vs Compound 1), the “survival (Kaplan Meier)” value was “Survival benefit and dose response”. Also, the tumor growth entry in data set [2] (single agent 1, 3, 10, and 30 mg/kg/day for 40 days) is listed as “tumor growth delay”. Moreover, the IC50 was 26 nM at MET and approximately 4000 nM against hERG channel. In addition, the protein bound in data set [3] (10 μM) is listed as 97.5%. Further, in data set [3] (human, plasma, 0.2 and 1 μM), the free fraction (fraction unbound) is less than 0.01. For the same compound, the “role in the metabolism of Compound 1” value at CYP2D6 is recorded as “only a minor role”.

For orientation: bioavailability means the share of a dose that reaches the circulation, judged against a reference dose that is usually intravenous. By IC50 is commonly meant the concentration that gives 50% inhibition. By fraction unbound is commonly meant the share of the substance not bound to proteins or other matrix. A low value points to little free substance.
